Assay results published in ChEMBL document CHEMBL4303122, “Identification of potential treatments for COVID-19 through artificial intelligence-enabled phenomic analysis of human cells infected with SARS-CoV-2” (2020).
Where “and” joins values, the source holds several entries; their conditions need not be identical. Equal values may be shown once. Where a name gives a salt, the structure may show the parent alone.

These compounds were tested on SARS-CoV-2 (assay: Antiviral activity against SARS-CoV-2 (USA-WA1/2020 strain) measured by imaging in HRCE cells at MOI 0.4 after 96 hrs (reported as hit score from 0-1 for on-disease vs off-disease activity: scores >0.6 considered hits)). Details: Homo sapiens.
Format: functional

Compound	Hit score
Eplivanserin hemifumarate	-0.0126
FLUPENTIXOL	0.12
GADODIAMIDE	0.193
MONOCTANOIN	-0.0148
OXALIPLATIN	0.0878
SPIRAMYCIN	0.139 and 0.136
THIMEROSAL	-0.0445
hemomex-s	0.064
perchlozone	0.0874
stetaderm	0.101

These compounds were tested on SARS-CoV-2 (assay: Antiviral activity against SARS-CoV-2 (USA-WA1/2020 strain) measured by imaging in Vero cells at MOI 0.08 after 48 hrs (reported as hit score from 0-1 for on-disease vs off-disease activity: scores >0.6 considered hits)). Details: not given.
Format: functional, Chlorocebus sabaeus

Compound	Hit score
OC[C@H]1NC[C@H](O)[C@@H](O)[C@H]1O	0.1704
CC(C)CN(C[C@@H](O)[C@H](Cc1ccccc1)NC(=O)O[C@H]1CO[C@H]2OCC[C@H]21)S(=O)(=O)c1ccc(N)cc1	0.153
NC(=O)c1nc(F)cnc1O	0.1243
N[C@@H](CCN[C@@H](CCN1CC[C@H]1C(=O)O)C(=O)O)C(=O)O	0.1086
CCC(CC)COC(=O)[C@H](C)N[P@](=O)(OC[C@H]1O[C@@](C#N)(c2ccc3c(N)ncnn23)[C@H](O)[C@@H]1O)Oc1ccccc1	0.5934
O=S(=O)(c1cccc2c(Cl)cccc12)N1CCCNCC1	0.1073
CC(C)(C)NC(=O)[C@@H]1CN(Cc2cccnc2)CCN1C[C@@H](O)C[C@@H](Cc1ccccc1)C(=O)N[C@H]1c2ccccc2C[C@H]1O.O	0.2525
CCOC(=O)[C@H]1O[C@@H]1C(=O)N[C@@H](CC(C)C)C(=O)NCCC(C)C [ALOXISTATIN]	0.4403
CN(C)C(=O)COC(=O)Cc1ccc(OC(=O)c2ccc(NC(=N)N)cc2)cc1 [CAMOSTAT]	0.2137
CCN(CC)CCCC(C)Nc1ccnc2cc(Cl)ccc12 (configuration not stated) [CHLOROQUINE]	0.6704
CC(C)c1nc(CN(C)C(=O)N[C@@H](CCN2CCOCC2)C(=O)N[C@H](CC[C@H](Cc2ccccc2)NC(=O)OCc2cncs2)Cc2ccccc2)cs1 [COBICISTAT]	0.2397
COC(=O)/C=C/C(=O)OC [DIMETHYL FUMARATE]	0.1078
N#C[C@@]1(c2ccc3c(N)ncnn23)O[C@H](CO)[C@@H](O)[C@H]1O [GS-441524]	1
O=C(CCCN1CCC(O)(c2ccc(Cl)cc2)CC1)c1ccc(F)cc1 [HALOPERIDOL]	0.07542
CCN(CCO)CCCC(C)Nc1ccnc2cc(Cl)ccc12.O=S(=O)(O)O (configuration not stated) [HYDROXYCHLOROQUINE SULFATE]	0.5553
CC[C@H](Nc1ncnc2[nH]cnc12)c1nc2cccc(F)c2c(=O)n1-c1ccccc1 [IDELALISIB]	-0.08519

Compound	Hit score
CC(C)Cn1cnc2c(N)nc3ccccc3c21 [IMIQUIMOD]	0.3174
COc1ccc2c(c1)c(CC(=O)O)c(C)n2C(=O)c1ccc(Cl)cc1 [INDOMETHACIN]	0.1024
Cc1cccc(C)c1OCC(=O)N[C@@H](Cc1ccccc1)[C@@H](O)C[C@H](Cc1ccccc1)NC(=O)[C@H](C(C)C)N1CCCNC1=O [LOPINAVIR]	0.1843
C[C@H]1C[C@@H]2[C@H]([C@@H](O)C[C@@]3(C)[C@H]2CC[C@]3(O)C(=O)COC(=O)CCC(=O)[O-])[C@@]2(C)C=CC(=O)C=C12.[Na+] [METHYLPREDNISOLONE SODIUM SUCCINATE]	0.2294
CCC(CC)O[C@@H]1C=C(C(=O)O)C[C@H](N)[C@H]1NC(C)=O [OSELTAMIVIR CARBOXYLATE]	0.1922
C1=N/C2=N/c3ccc(OCCN4CCCC4)c(c3)COC/C=C/COCc3cccc(c3)C(=C1)N2 [PACRITINIB]	0.2418
Nc1nc(O)c2ncn(CCC(CO)CO)c2n1 [PENCICLOVIR]	0.1283
OC[C@H]1O[C@@H](Oc2cc(O)cc(/C=C/c3ccc(O)cc3)c2)[C@H](O)[C@@H](O)[C@@H]1O [PICEID]	0.06165
C=C[C@H]1CN2CC[C@H]1C[C@H]2[C@H](OC(=O)OCC)c1ccnc2ccc(OC)cc12 [QUININE ETHYLCARBONATE]	0.1489
C=C[C@H]1CN2CC[C@H]1C[C@H]2[C@H](O)c1ccnc2ccc(OC)cc12 [QUININE]	0.2113
NC(=O)c1ncn([C@@H]2O[C@H](CO)[C@@H](O)[C@H]2O)n1 [RIBAVIRIN]	0.1047
CC(C)c1nc(CN(C)C(=O)N[C@H](C(=O)N[C@@H](Cc2ccccc2)C[C@H](O)[C@H](Cc2ccccc2)NC(=O)OCc2cncs2)C(C)C)cs1 [RITONAVIR]	0.1477
CC[C@H]1OC(=O)[C@@](C)(F)C(=O)[C@H](C)[C@@H](O[C@@H]2O[C@H](C)C[C@H](N(C)C)[C@H]2O)[C@](C)(OC)C[C@@H](C)C(=O)[C@H](C)[C@H]2N(CCCCn3cc(-c4cccc(N)c4)nn3)C(=O)O[C@]12C [SOLITHROMYCIN]	0.6032
CC(C)OC(=O)OCOP(=O)(CO[C@H](C)Cn1cnc2c(N)ncnc21)OCOC(=O)OC(C)C.O=C(O)/C=C/C(=O)O [TENOFOVIR DISOPROXIL FUMARATE]	0.1962
CC1=CC(=O)C(C(C)C)=CC1=O [THYMOQUINONE]	0.2773
CCOC(=O)c1c(CSc2ccccc2)n(C)c2cc(Br)c(O)c(CN(C)C)c12 [UMIFENOVIR]	0.1334
